Reference: US20230085307A1, “PYRIDAZINONE COMPOUND AND HERBICIDE” (NISSAN CHEMICAL CORPORATION, priority 2019, published 2023)

How the values were obtained:
late watergrass = experiment: Test Example 1: herbicidal activity, application before weed generation under submerged conditions (Table 16, symbol A); format: in vivo, late watergrass (Echinochloa oryzicola); settings: 320 g/ha applied herbicide
Outline: (§1)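 Alluvial soil was flooded to 4 cm depth, weed seeds were sown mixed and 2.5-leaf rice seedlings were transplanted. On sowing day, the compound's emulsion, diluted in water to a set dose, was applied to the water surface. Plants grew at 25–30 °C and were scored 0–5 after three weeks.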

Japanese bulrush = experiment: Test Example 1: herbicidal activity, application before weed generation under submerged conditions (Table 16, symbol B); format: in vivo, Japanese bulrush (Schoenoplectus juncoides); settings: 320 g/ha applied herbicide
Outline: as §1

oval-leafed pondweed = experiment: Test Example 1: herbicidal activity, application before weed generation under submerged conditions (Table 16, symbol C); format: in vivo, oval-leafed pondweed (Monochoria vaginalis); settings: 320 g/ha applied herbicide
Outline: as §1

barnyard grass = experiment: Test Example 3: herbicidal effect by foliage application, Wagner pot (Table 18, symbol H); format: in vivo, barnyard grass (Echinochloa crus-galli); settings: for herbicidal effect on H (barnyard grass), rating 0-5: 320 g/ha; for herbicidal effect on H: barnyard grass: amount of applied herbicide 320 g/ha
Outline: (§2)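 Plants were sown in alluvial soil held under 0.1–0.5 cm standing water and grown 14 days in a greenhouse at 25–30 °C. An emulsifiable formulation, water-diluted to the set dose, was then sprayed onto the foliage, and effects were scored three weeks later using previously defined criteria.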

Chinese sprangletop = experiment: Test Example 3: herbicidal effect by foliage application, Wagner pot (Table 18, symbol D); format: in vivo, chinese sprangletop (Leptochloa chinensis); settings: for herbicidal effect on D (Chinese sprangletop), rating 0-5: 320 g/ha; for herbicidal effect on D: Chinese sprangletop: amount of applied herbicide 320 g/ha
Outline: as §2

rice flat sedge = experiment: Test Example 3: herbicidal effect by foliage application, Wagner pot (Table 18, symbol E); format: in vivo, rice flat sedge (Cyperus iria); settings: for herbicidal effect on E (rice flat sedge), rating 0-5: 320 g/ha; for herbicidal effect on E: rice flat sedge: amount of applied herbicide 320 g/ha
Outline: as §2

Italian ryegrass [1] = experiment: Test Example 4: herbicidal effect by soil treatment (Table 19, symbol K); format: in vivo, Italian ryegrass (Lolium multiflorum); settings: for herbicidal effect rating, K: Italian ryegrass: 320 g/ha
Outline: (§3)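 Applied as a water-diluted emulsion, the compound was sprayed onto soil covering newly sown seeds. Evaluation came three weeks after application, in a greenhouse held at 25° C. to 30° C.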

windgrass = experiment: Test Example 4: herbicidal effect by soil treatment (Table 19, symbol L); format: in vivo, windgrass (Apera spica-venti); settings: for herbicidal effect rating, L: windgrass: 320 g/ha
Outline: as §3

lambsquarters [2] = experiment: Test Example 4: herbicidal effect by soil treatment (Table 19, symbol O); format: in vivo, lambsquarters (Chenopodium album)
Outline: as §3

chickweed = experiment: Test Example 4: herbicidal effect by soil treatment (Table 19, symbol P); format: in vivo, common chickweed (Stellaria media); settings: for herbicidal effect rating, P: chickweed: 320 g/ha
Outline: as §3

southern crabgrass = experiment: Test Example 5: herbicidal effect by foliage application, plastic box (Table 20, symbol F); format: in vivo, southern crabgrass (Digitaria ciliaris); settings: foliage application, 320 g/ha
Outline: (§4)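 Sow seeds spot-wise in sterilized diluvial soil; cover with ~1.5 cm soil. Grow 14 days in greenhouse, 25° C. to 30° C. Spray foliage with emulsion diluted to predetermined amount. Rate effect after 3 weeks.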

green foxtail = experiment: Test Example 5: herbicidal effect by foliage application, plastic box (Table 20, symbol G); format: in vivo, green foxtail (Setaria viridis); settings: foliage application, 320 g/ha
Outline: as §4

wild oat = experiment: Test Example 5: herbicidal effect by foliage application, plastic box (Table 20, symbol I); format: in vivo, wild oat (Avena fatua); settings: foliage application, 320 g/ha
Outline: as §4

Italian ryegrass [3] = experiment: Test Example 5: herbicidal effect by foliage application, plastic box (Table 20, symbol K); format: in vivo, Italian ryegrass (Lolium multiflorum); settings: foliage application, 320 g/ha
Outline: as §4

velvetleaf = experiment: Test Example 5: herbicidal effect by foliage application, plastic box (Table 20, symbol M); format: in vivo, velvetleaf (Abutilon theophrasti); settings: foliage application, 320 g/ha
Outline: as §4

lambsquarters [4] = experiment: Test Example 5: herbicidal effect by foliage application, plastic box (Table 20, symbol O); format: in vivo, lambsquarters (Chenopodium album); settings: foliage application, 320 g/ha
Outline: as §4

blackgrass = experiment: Test Example 5: herbicidal effect by foliage application, plastic box (Table 20, symbol J); format: in vivo, blackgrass (Alopecurus myosuroides); settings: foliage application, 320 g/ha, evaluated three weeks after application
Outline: as §4

[5] = evaluated three weeks after application
[6] = amount of applied herbicide 320 g/ha

| Structure (SMILES) | Herbicidal effect on A: late watergrass (grade 0-5) (late watergrass) | Herbicidal effect on B: Japanese bulrush (grade 0-5) (Japanese bulrush) | Herbicidal effect on C: oval-leafed pondweed (grade 0-5) (oval-leafed pondweed) | herbicidal effect on H (barnyard grass), rating 0-5 (barnyard grass) | herbicidal effect on D (Chinese sprangletop), rating 0-5 (Chinese sprangletop) | herbicidal effect on E (rice flat sedge), rating 0-5 (rice flat sedge) | herbicidal effect rating, K: Italian ryegrass (Italian ryegrass [1]) | herbicidal effect rating, L: windgrass (windgrass) | herbicidal effect rating, P: chickweed (chickweed) | herbicidal effect on H: barnyard grass (barnyard grass) | herbicidal effect on D: Chinese sprangletop (Chinese sprangletop) | herbicidal effect on E: rice flat sedge (rice flat sedge) | herbicidal effect on F: southern crabgrass (criteria 0-5) (southern crabgrass; [5]) | herbicidal effect on I: wild oat (criteria 0-5) (wild oat; [5]) | herbicidal effect on J: blackgrass (criteria 0-5) (blackgrass) | herbicidal effect on K: Italian ryegrass (criteria 0-5) (Italian ryegrass [3]; [5]) | herbicidal effect on M: velvetleaf (criteria 0-5) (velvetleaf; [5]) | herbicidal effect on O: lambsquarters (criteria 0-5) (lambsquarters [4]; [5]) | further results |
| --- | --- | --- | --- | --- | --- | --- | --- | --- | --- | --- | --- | --- | --- | --- | --- | --- | --- | --- | --- |
| Cc1nn(C)c(=O)c(-c2c(-c3ccccc3OC(F)(F)F)sc3ccc(F)cc23)c1O [2-043] | 0 (Herbicidal rate of 5% or less (almost no effect)) | 2 (Herbicidal rate of 20% or more and less than 40%) | 1 (Herbicidal rate of 5% or more and less than 20%) | 5 (Herbicidal rate of 90% or more (almost completely withered)) | 3 (Herbicidal rate of 40% or more and less than 70%) | 5 (Herbicidal rate of 90% or more (almost completely withered)) | 0 (Herbicidal rate of 5% or less (almost no effect)) | 0 (Herbicidal rate of 5% or less (almost no effect)) | 1 (Herbicidal rate of 5% or more and less than 20%) | – | – | – | – | – | – | – | – | – | herbicidal effect rating, O: lambsquarters (lambsquarters [2]; 320 g/ha): 5 (Herbicidal rate of 90% or more (almost completely withered)); effect on southern crabgrass (F) (southern crabgrass; 3 weeks after application): 4 (Herbicidal rate of 70% or more and less than 90%); effect on green foxtail (G) (green foxtail; 3 weeks after application): 5 (Herbicidal rate of 90% or more (almost completely withered)); effect on wild oat (I) (wild oat; 3 weeks after application): 2 (Herbicidal rate of 20% or more and less than 40%); effect on Italian ryegrass (K) (Italian ryegrass [3]; 3 weeks after application): 0 (Herbicidal rate of 5% or less (almost no effect)); effect on velvetleaf (M) (velvetleaf; 3 weeks after application): 5 (Herbicidal rate of 90% or more (almost completely withered)); effect on lambsquarters (O) (lambsquarters [4]; 3 weeks after application): 4 (Herbicidal rate of 70% or more and less than 90%) |
| C#CCOc1ccc(-c2sc3ccc(F)cc3c2-c2c(OCOCCOC)c(C)nn(C)c2=O)cc1 [2-055] | 0 (Herbicidal rate of 5% or less (almost no effect)) | 3 (Herbicidal rate of 40% or more and less than 70%) | 1 (Herbicidal rate of 5% or more and less than 20%) | 5 (Herbicidal rate of 90% or more (almost completely withered)) | 5 (Herbicidal rate of 90% or more (almost completely withered)) | 4 (Herbicidal rate of 70% or more and less than 90%) | 0 (Herbicidal rate of 5% or less (almost no effect)) | 0 (Herbicidal rate of 5% or less (almost no effect)) | 3 (Herbicidal rate of 40% or more and less than 70%) | – | – | – | – | – | – | – | – | – | herbicidal effect on F: southern crabgrass (southern crabgrass; [5]): 1 (Herbicidal rate of 5% or more and less than 20%); herbicidal effect on G: green foxtail (green foxtail; [5]): 5 (Herbicidal rate of 90% or more (almost completely withered)); herbicidal effect on I: wild oat (wild oat; [5]): 1 (Herbicidal rate of 5% or more and less than 20%); herbicidal effect on J: blackgrass (blackgrass): 3 (Herbicidal rate of 40% or more and less than 70%); herbicidal effect on K: Italian ryegrass (Italian ryegrass [3]; [5]): 3 (Herbicidal rate of 40% or more and less than 70%); herbicidal effect on M: velvetleaf (velvetleaf; [5]): 5 (Herbicidal rate of 90% or more (almost completely withered)); herbicidal effect on O: lambsquarters (lambsquarters [4]; [5]): 5 (Herbicidal rate of 90% or more (almost completely withered)) |
| CCCCCOc1cccc(-c2sc3ccc(F)cc3c2-c2c(O)c(C)nn(C)c2=O)c1 [2-225] | 0 (Herbicidal rate of 5% or less (almost no effect)) | 3 (Herbicidal rate of 40% or more and less than 70%) | 3 (Herbicidal rate of 40% or more and less than 70%) | – | – | – | – | – | – | 4 (Herbicidal rate of 70% or more and less than 90%) | 3 (Herbicidal rate of 40% or more and less than 70%) | 4 (Herbicidal rate of 70% or more and less than 90%) | 2 (Herbicidal rate of 20% or more and less than 40%) | 0 (Herbicidal rate of 5% or less (almost no effect)) | 0 (Herbicidal rate of 5% or less (almost no effect)) | 0 (Herbicidal rate of 5% or less (almost no effect)) | 5 (Herbicidal rate of 90% or more (almost completely withered)) | 4 (Herbicidal rate of 70% or more and less than 90%) | herbicidal effect on K: Italian ryegrass (Italian ryegrass [1]; [6]): 0 (Herbicidal rate of 5% or less (almost no effect)); herbicidal effect on L: windgrass (windgrass; [6]): 0 (Herbicidal rate of 5% or less (almost no effect)); herbicidal effect on O: lambsquarters (lambsquarters [2]; [6]): 3 (Herbicidal rate of 40% or more and less than 70%); herbicidal effect on P: chickweed (chickweed; [6]): 0 (Herbicidal rate of 5% or less (almost no effect)) |
| Cc1nn(C)c(=O)c(-c2c(-c3cccc(OC(C)C)c3)sc3ccc(F)cc23)c1O [2-215] | 3 (Herbicidal rate of 40% or more and less than 70%) | 0 (Herbicidal rate of 5% or less (almost no effect)) | 0 (Herbicidal rate of 5% or less (almost no effect)) | – | – | – | – | – | – | 5 (Herbicidal rate of 90% or more (almost completely withered)) | 5 (Herbicidal rate of 90% or more (almost completely withered)) | 4 (Herbicidal rate of 70% or more and less than 90%) | 5 (Herbicidal rate of 90% or more (almost completely withered)) | 0 (Herbicidal rate of 5% or less (almost no effect)) | 3 (Herbicidal rate of 40% or more and less than 70%) | 5 (Herbicidal rate of 90% or more (almost completely withered)) | 3 (Herbicidal rate of 40% or more and less than 70%) | 3 (Herbicidal rate of 40% or more and less than 70%) | K: Italian ryegrass, herbicidal effect rating (Italian ryegrass [1]; [6]): 3 (Herbicidal rate of 40% or more and less than 70%); L: windgrass, herbicidal effect rating (windgrass; [6]): 0 (Herbicidal rate of 5% or less (almost no effect)); O: lambsquarters, herbicidal effect rating (lambsquarters [2]; [6]): 3 (Herbicidal rate of 40% or more and less than 70%); herbicidal effect on G: green foxtail (criteria 0-5) (green foxtail; [5]): 5 (Herbicidal rate of 90% or more (almost completely withered)) |
